According to ChEMBL document CHEMBL2073840, “Inhibitory effects of a cyclosporin derivative, SDZ PSC 833, on transport of doxorubicin and vinblastine via human P-glycoprotein” (Jpn J Cancer Res, 1998):

Target: ATP-dependent translocase ABCB1 (Homo sapiens, UniProt P08183)
Assay: TP_TRANSPORTER: transepithelial transport (basal to apical) in MDR1-expressing LLC-PK1 cells
Assay type: functional, cell-based
Conditions: pig

Sequence of ATP-dependent translocase ABCB1 (P08183 whole entry): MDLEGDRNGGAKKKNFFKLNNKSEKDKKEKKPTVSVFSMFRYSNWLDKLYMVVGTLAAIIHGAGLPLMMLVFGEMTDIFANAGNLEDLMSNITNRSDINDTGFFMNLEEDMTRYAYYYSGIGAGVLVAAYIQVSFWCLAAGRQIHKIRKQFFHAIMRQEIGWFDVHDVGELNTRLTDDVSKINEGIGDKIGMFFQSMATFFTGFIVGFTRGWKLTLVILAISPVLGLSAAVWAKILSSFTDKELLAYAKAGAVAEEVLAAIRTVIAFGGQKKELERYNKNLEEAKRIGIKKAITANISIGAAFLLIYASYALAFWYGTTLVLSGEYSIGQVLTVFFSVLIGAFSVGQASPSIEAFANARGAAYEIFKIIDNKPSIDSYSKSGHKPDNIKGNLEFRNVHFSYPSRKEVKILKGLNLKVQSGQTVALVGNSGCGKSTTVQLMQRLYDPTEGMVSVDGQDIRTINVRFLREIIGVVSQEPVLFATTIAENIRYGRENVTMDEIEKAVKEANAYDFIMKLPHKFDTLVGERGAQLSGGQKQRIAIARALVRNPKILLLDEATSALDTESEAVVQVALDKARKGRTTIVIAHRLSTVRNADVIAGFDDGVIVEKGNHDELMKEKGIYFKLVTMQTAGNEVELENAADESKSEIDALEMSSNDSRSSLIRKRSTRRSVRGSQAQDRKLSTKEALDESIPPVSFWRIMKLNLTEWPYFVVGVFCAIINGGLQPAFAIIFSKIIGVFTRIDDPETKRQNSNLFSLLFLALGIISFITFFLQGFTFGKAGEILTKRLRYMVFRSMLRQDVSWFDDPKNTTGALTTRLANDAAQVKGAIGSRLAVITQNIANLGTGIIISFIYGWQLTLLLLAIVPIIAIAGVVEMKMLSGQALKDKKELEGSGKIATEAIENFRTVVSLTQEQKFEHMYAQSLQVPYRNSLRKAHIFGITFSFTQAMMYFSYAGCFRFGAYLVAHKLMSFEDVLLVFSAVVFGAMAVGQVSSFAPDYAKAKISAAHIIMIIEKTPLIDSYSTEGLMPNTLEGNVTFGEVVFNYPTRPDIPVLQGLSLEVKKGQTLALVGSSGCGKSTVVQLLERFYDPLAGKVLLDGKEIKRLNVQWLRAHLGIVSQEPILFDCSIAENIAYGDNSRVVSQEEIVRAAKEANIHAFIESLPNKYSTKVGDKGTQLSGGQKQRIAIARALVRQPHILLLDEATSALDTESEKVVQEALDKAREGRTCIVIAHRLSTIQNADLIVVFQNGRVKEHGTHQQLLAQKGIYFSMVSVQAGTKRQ

Row | Activity | Compound
1 | substrate [+] | COc1cccc2c1C(=O)c1c(O)c3c(c(O)c1C2=O)C[C@@](O)(C(=O)CO)C[C@@H]3O[C@H]1C[C@H](N)[C@H](O)[C@H](C)O1 [DOXORUBICIN]
2 | is not a substrate [-] | C/C=C/C[C@@H](C)C(=O)[C@H]1C(=O)N[C@@H](C(C)C)C(=O)N(C)CC(=O)N(C)[C@@H](CC(C)C)C(=O)N[C@@H](C(C)C)C(=O)N(C)[C@@H](CC(C)C)C(=O)N[C@@H](C)C(=O)N[C@H](C)C(=O)N(C)[C@@H](CC(C)C)C(=O)N(C)[C@@H](CC(C)C)C(=O)N(C)[C@@H](C(C)C)C(=O)N1C [VALSPODAR]
